Assay results as given in patent US9226937B2 (priority 2011, dated 2016).

Legend:
cardiac stem cells = settings: rats, cited from earlier work
SIRT1 = target: T1, SIRT1 (Homo sapiens, UniProt Q96EB6); assay: SIRT1 Fluorescent Activity Assay/Drug Discovery Kit AK-555; type: biochemical; settings: stored under ambient conditions
T1 construct: purchased Biomol Research Laboratories, Inc. AK-555
T1 sequence (Q96EB6 1-747): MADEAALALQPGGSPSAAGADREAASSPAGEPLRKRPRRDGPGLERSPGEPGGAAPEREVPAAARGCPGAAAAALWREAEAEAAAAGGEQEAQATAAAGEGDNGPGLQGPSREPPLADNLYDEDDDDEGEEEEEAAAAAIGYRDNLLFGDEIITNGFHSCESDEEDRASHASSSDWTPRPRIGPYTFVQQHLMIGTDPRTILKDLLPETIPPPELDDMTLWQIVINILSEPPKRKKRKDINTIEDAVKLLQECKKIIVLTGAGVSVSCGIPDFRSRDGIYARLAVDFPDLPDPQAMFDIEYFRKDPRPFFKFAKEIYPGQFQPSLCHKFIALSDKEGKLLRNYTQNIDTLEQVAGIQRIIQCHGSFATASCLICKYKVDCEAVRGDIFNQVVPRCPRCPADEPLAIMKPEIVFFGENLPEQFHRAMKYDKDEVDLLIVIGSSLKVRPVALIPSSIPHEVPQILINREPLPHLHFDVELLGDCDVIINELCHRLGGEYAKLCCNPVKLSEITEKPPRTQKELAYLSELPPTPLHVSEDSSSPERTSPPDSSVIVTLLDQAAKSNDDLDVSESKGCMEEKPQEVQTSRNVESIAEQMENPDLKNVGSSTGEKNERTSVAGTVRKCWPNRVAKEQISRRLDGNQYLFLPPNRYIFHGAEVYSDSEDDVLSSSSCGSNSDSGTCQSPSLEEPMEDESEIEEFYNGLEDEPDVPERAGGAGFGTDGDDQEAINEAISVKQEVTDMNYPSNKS
Text: Small molecules in the form of resveratrol were obtained via ethanol extraction from Vitis vinifera and Polygonum cuspidatum. […] The extract was kept in a nitrogen environment and added to a mixture including approximately 25% by weight quercetin; 33% by weight lecithin; and 9% phytic acid (in the form of rice bran extract). […] The resulting slurry was placed into a capsule-filling machine. Individual dosages were encapsulated in gelatin capsules tinted with titanium oxide (Licaps® capsules available from Capsugel; Greenwood, S.C.; www.capsugel.com). The dosages were encapsulated in a substantially oxygen-free environment using a capsule-filling machine continually flushed with nitrogen (the Capsugel CFS 1000 Capsule Filling and Sealing Machine, available from Capsugel; Greenwood, S.C.; www.capsugel.com). […] These capsule samples were stored under ambient conditions for approximately eight months. The samples were tested for biological activity by determining whether each sample could activate sirtuin enzymes and, in particular, whether the samples stimulated SIRT1 catalytic activity. The samples were tested four months and eight months after encapsulation. Tests were performed using a SIRT1 Fluorescent Activity Assay/Drug Discovery Kit AK-555 (available from Biomol® Research Laboratories, Inc.; Plymouth Meeting, Pa.; www.biomol.com).

rhabdomyosarcoma cells = settings: low dosage; cited from earlier work
injected tumors = settings: mice with injected tumors; cited from earlier work
fibrosarcoma cells = settings: cited from earlier work

In the case of Oc1ccc(/C=C/c2cc(O)cc(O)c2)cc1 [resveratrol, 3,4′,5-trihydroxy-trans-stilbene], the “cardiac functional parameters (left ventricular ejection fraction, fractional shortening)” value (cardiac stem cells; low dose (2.5 mg per kilogram) for two weeks prior to injection of cardiac stem cells) is listed as “significantly improved” and the “stem cell survival and proliferation” value (cardiac stem cells; low dose for two weeks prior to injection of cardiac stem cells) is listed as “enhanced stem cell survival and proliferation”.
In the case of O=c1c(O)c(-c2ccc(O)c(O)c2)oc2cc(O)cc(O)c12 [quercetin], the “biological activity of encapsulated quercetin (ability to stimulate SIRT1 activity compared to when no quercetin is present)” value (SIRT1) was “maintained biological activity”.
For O=P(O)(O)O[C@H]1[C@H](OP(=O)(O)O)[C@@H](OP(=O)(O)O)[C@H](OP(=O)(O)O)[C@@H](OP(=O)(O)O)[C@H]1OP(=O)(O)O [IP6, (2,3,4,5,6-pentaphosphonooxycyclohexyl)dihydrogen phosphate], the “suppression of growth of rhabdomyosarcoma cells” value (rhabdomyosarcoma cells) is given as 50%, the “tumor size versus non-treated mice” value (injected tumors) is given as 50 times smaller and the “survival of mice with injected fibrosarcoma cells” value (fibrosarcoma cells) is given as “prolong their survival”. The “growth of injected fibrosarcoma cells” value (fibrosarcoma cells; mice) was “reduce the growth”.
